Laboratory results taken from patent publication US9115122B2, “Non-ATP dependent inhibitors of extracellular signal-regulated kinase (ERK)” (UNIVERSITY OF MARYLAND, BALTIMORE, priority 2012, dated 2015).
Blank lines part the entries; values can stand above or below the molecule they belong to.

Legend:
Type in all cases: cell-based
Jurkat cells = experiment: Dose-response growth inhibition (GI50) of select compounds; conditions: Homo sapiens, Jurkat
SK-MEL-28 melanoma cells [1] = experiment: as above; conditions: Homo sapiens, SK-MEL-28, 48 h, two days
Procedure: (§1) An example of the dose response curve for compound 30h and the BRaf inhibitor PLX4032 for inhibiting the growth of melanoma cell lines is shown in FIG. 14. […] A summary of GI50 values for select compounds along with comparisons to know ERK pathway inhibitors in various cell lines is shown in Table 13. […] First, thiazolidinedione compounds have been identified to be selective inhibitors of cancer cell lines containing activated ERK signaling. Second, changes in the 4-ethoxyphenyl component of the parent compound 76 improve selectivity and potency for inhibiting melanoma cell growth. Third, compound 30h is a potent inhibitor of melanoma cell lines that have become resistant to the clinically relevant BRaf and MEK inhibitors. […] Lastly, 30h is as potent as the ATP-competitive pyrazolopyridazinamine ERK inhibitor (FR180204) in preventing melanoma cell proliferation and provides an alternative non-ATP-dependent approach to target cancer cells that are dependent on active ERK signaling.
(§2) Melanoma cells (A375, SK-MEL-28, and RPMI7951) were seeded at a density of 5,000 per well in 96-well plate. After overnight incubation, cells were treated with varying doses of PLX4032 (A) or 31h (B) for two days. Cell viability was determined by the addition of Cell Titer-Blue Reagent (20 μL/well) followed by 2 hours of incubation at 37° C. after which fluorescence was recorded (555/585 nm). Cell viability was expressed as percentage of vehicle control and data represent the average of three individual experiments.

RPMI7951 melanoma cells [2] = experiment: as above; conditions: Homo sapiens, RPMI-7951, 48 h, two days
Procedure: as §1, §2

A375 melanoma cells [3] = experiment: as above; conditions: Homo sapiens, A-375, 48 h, two days
Procedure: as §1, §2

[4] = test system: serum response element (SRE); experiment: SRE promoter luciferase assay, HeLa cells (Example 4); conditions: EGF
Procedure: (§3) HeLa cells were seeded in 24-well plates (4×10^4 cells/well) and incubated 18 hours prior to achieve ˜60-70% confluent. Cells were transfected with activator protein-1 (pAP1(PMA)-TA-Luc; Clontech) or the serum response element (pGL4.33-SRE; Promega) luciferase reporter plasmids (250 ng/well) using Lipofectamine™ (Invitrogen). After 16 hours, cells were treated with increasing amount of compounds as indicated for 20 minutes, followed by stimulation with EGF (25 ng/mL) for 4.5 hr. The luciferase activity in the cell extracts was determined with a Dual Luciferase Assay System (Promega) according to the manufacturer's instructions. Luciferase activities were monitored with a Lumat LB 9507 luminometer (Berthold Technology) and data were normalized to the amount of protein in each sample.

HeLa cells [5] = experiment: Dose-response growth inhibition (GI50) of select compounds; conditions: Homo sapiens, HeLa
[6] = test system: activator protein-1 (AP-1) promoter; experiment: AP-1 promoter luciferase assay, HeLa cells (Example 4); conditions: EGF
Procedure: as §3

RPMI-7951 melanoma cells = experiment: Cell proliferation WST-1 assay, single dose (Example 4); conditions: 100 μM, 48 hours
How it was run: (§4)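 Tetrazolium (WST-1) read-out of proliferation, values relative to DMSO-only wells; cells treated for 48 h after 16-20 h recovery.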

HL-60 leukemic cells = experiment: as above; conditions: 100 μM, 48 hours
How it was run: as §4

[7] = test system: Jurkat T-cell leukemia cells; experiment: as above; conditions: 100 μM, 48 hours
How it was run: as §4

SK-MEL-28 melanoma cells [8] = experiment: as above; conditions: 100 μM, 48 hours
How it was run: as §4

[9] = test system: HeLa cervical carcinoma cells; experiment: as above; conditions: 100 μM, 48 hours
How it was run: as §4

A375 melanoma cells [10] = experiment: as above; conditions: 100 μM, 48 hours
How it was run: as §4

[11] = test system: MEK1-induced AP-1 promoter activity; experiment: AP-1 promoter luciferase assay, HeLa cells expressing active MEK1 mutant; conditions: Homo sapiens, 4 hours, read-out: IC50 inhibition of MEK1-induced AP-1 promoter activity
Procedure: FIG. 4. Compound SF-3-026 and analogs inhibit SRE and AP-1 transcription factor function. (a) HeLa cells were transfected with constructs containing SRE or AP-1 promoters driving luciferase expression and then stimulated with EGF in the presence or absence of SF-3-026 for 4 hours followed by measurements of luciferase activity. Cells treated with U0126 were used as a positive inhibitor control. (b and c) HeLa cells were prepared and treated as in (a) with the indicated concentrations of SF-3-026 or analogs for 4 hours followed by the measurement of luciferase activity regulated by the SRE (b) or AP-1 (c) promoters. Data in (b and c) were normalized to EGF-only treatment and represent the mean and standard deviation from three independent experiments. (d) Compound SF-3-026 and analogs inhibit MEK1-induced AP-1 transcription factor function. HeLa cells were transfected with the AP-1 promoter construct and a constitutively active MEK1 mutant in the presence (10 μM) or absence of the MEK1/2 inhibitor (U0126) or an ATP-competitive ERK inhibitor (ERKi) for 4 hours followed by measurements of luciferase activity. (e) Cells expressing the AP-1 promoter and an active MEK-1 construct were treated with the indicated concentrations of SF-3-026 or analogs for 4 hours followed by the measurement of luciferase activity. Data in (e) were normalized to active MEK1-only treatment and represent the mean and standard deviation from three independent experiments.
as §3, with “(40,000” for “(4×10^4”, “hours” for “hours prior”, “pre-treated” for “treated”, “varying amounts” for “increasing amount”, “hr. In some experiments, cells transfected with the pAP1(PMA)-TA-Luc promoter and a constitutively active MEK1 mutant cDNA were treated with varying amounts of compounds during the last 4 hours of incubation.” for “hr.”, “sample. […]” for “sample.”

[12] = test system: Jurkat T-cell leukemia cells; experiment: Cell proliferation, fluorescent Cell Titer Blue Assay (Example 1); conditions: Homo sapiens, 48 hours
Procedure: (§5) FIG. 5. Dose dependent inhibition of cancer cell proliferation in vitro by SF-3-026 and analogs. A375 (closes circles), RPM17951 (closed squares), HeLa (open circles), or Jurkat (open squares) cells were treated for 48 hours with indicated concentration of (a) SF-3-026, (b) SF-2-027, (c) SF-2-029, or (d) SF-2-030 and cell proliferation was assessed by the fluorescent Cell Titer Blue Assay. The data were reproduced in 3 separate experiments.
(§6) Cells were seeded at 25,000 cells/well in 96-well plate and cultured overnight. Cells were treated for 24 hours with various concentrations of compounds and cell viability or caspase 3/7 activity were measured according to manufacturer's instructions using the fluorescent Cell Titer Blue Assay (Promega) or luminescent Caspase 3/7 Glo Assay (Promega).
(§7) It was next determined whether inhibition of AP-1 proteins by SF-3-026 and analogs affected the proliferation of cancer cells driven by mutations that constitutively activate the ERK1/2 pathway. For these experiments, A375 and RPMI7951 melanoma cells, which have a valine to glutamate mutation on residue 600 in BRaf that causes constitutive ERK1/2 activation, were chosen. Moreover, RPMI7951 cells are resistant to clinically used BRaf inhibitors due to overexpression of MAP3K8 (the gene encoding COT/Tp12) that re-activates ERK1/2 signaling. Both melanoma cells lines were treated with varying doses of SF-3-026 or analogs and cell viability was compared to HeLa cervical carcinoma and Jurkat T-cell leukemia cells, which are p53 defective but contain no known activating mutations in the ERK1/2 pathway.

RPMI7951 melanoma cells [13] = experiment: as above; conditions: Homo sapiens, RPMI-7951; 48 hours
Procedure: as §5, §6, §7

[14] = test system: HeLa cervical carcinoma cells; experiment: as above; conditions: Homo sapiens, 48 hours
Procedure: as §5, §6, §7

A375 melanoma cells [15] = experiment: as above; conditions: Homo sapiens, A-375; 48 hours
Procedure: as §5, §6, §7

AP-1 promoter = AP-1 promoter luciferase assay, EGF-stimulated HeLa cells (Example 1); conditions: Homo sapiens, EGF stimulation, 4 hours, read-out: IC50 inhibition of the AP-1 promoter
Procedure: FIG. 4. Compound SF-3-026 and analogs inhibit SRE and AP-1 transcription factor function. (a) HeLa cells were transfected with constructs containing SRE or AP-1 promoters driving luciferase expression and then stimulated with EGF in the presence or absence of SF-3-026 for 4 hours followed by measurements of luciferase activity. Cells treated with U0126 were used as a positive inhibitor control. (b and c) HeLa cells were prepared and treated as in (a) with the indicated concentrations of SF-3-026 or analogs for 4 hours followed by the measurement of luciferase activity regulated by the SRE (b) or AP-1 (c) promoters. Data in (b and c) were normalized to EGF-only treatment and represent the mean and standard deviation from three independent experiments. (d) Compound SF-3-026 and analogs inhibit MEK1-induced AP-1 transcription factor function. […]
HeLa cells were seeded in 24-well plates (40,000 cells/well) and incubated 18 hours to achieve ˜60-70% confluent. […] The luciferase activity in the cell extracts was determined with a Dual Luciferase Assay System (Promega) according to the manufacturer's instructions. Luciferase activities were monitored with a Lumat LB 9507 luminometer (Berthold Technology) and data were normalized to the amount of protein in each sample. […]

[16] = test system: c-Fos, Fra1, and FosB expression; experiment: Immunoblot of EGF-induced c-Fos, Fra1 and FosB expression in HeLa cells; conditions: EGF 25 ng/mL
Procedure: FIG. 3. EGF-mediated induction of AP-1 proteins is inhibited by SF-3-026 and SF-3-030. (a) HeLa cells were treated for 10, 30, or 60 min. with EGF (25 ng/mL) in the presence of 50 μM SF-3-026 or 10 μM U0126. Protein lysates were immunoblotted for c-Fos, Fra1, FosB and FosB2. Phosphorylated ERK1/2 is not affected by SF-3-026 and α-tubulin expression is shown for a protein loading control. (b) Protein lysates from HeLa cells treated for 30 min. with EGF in the absence or presence of 10, 25, 50, or 100 μM of SF-3-026 or SF-3-030 were immunoblotted for c-Fos, Fra1, FosB, FosB2, as well as phosphorylated ERK1/2 and MEK1/2. Total ERK2 and α-tubulin expression are shown for protein loading controls. Data are representative of three independent experiments.
Analysis of protein expression levels, activity, and cell proliferation were done as previously described. […] Proteins were separated by SDS-PAGE, analyzed by immunoblotting, and detected using enhanced chemiluminescence (ECL, GE Healthcare, United Kingdom).
The reported half-life for c-Fos is ˜10 minutes and growth factor-mediated stabilization of c-Fos protein expression can be observed within 30-60 minutes, whereas stabilization of Fra1 protein is delayed due to AP-1 regulation of the Fra1 promoter. Thus, growth factor-mediated induction of c-Fos, Fra1, and FosB expression was evaluated following treatment with SF-3-026. […]

A375 melanoma cells [17] = experiment: Caspase 3/7 Glo Assay; conditions: varying doses, 24 hours
Procedure: FIG. 6. SF-3-030 induces growth inhibition and apoptosis in A375 melanoma cells. A375 were seeded in a 96-well plate and incubated for 18-20 hours. Cells were treated with varying concentrations of SF-3-030 and allowed to incubate for an additional 24 hours. Cell viability was measured using the fluorescent Cell Titer Blue Assay and caspase 3/7 activity was measured using the luminescent Caspase 3/7 Glo Assay. Data represent the average of two experiments performed in duplicate.
as §6
(§8) To test whether the inhibition of cell proliferation was due to an apoptotic response, A375 and HeLa cells were treated with varying doses of SF-3-030 and cell viability along with caspase 3/7 activity was measured.

HeLa cells [18] = experiment: Caspase 3/7 Glo Assay; conditions: varying doses
Procedure: as §6, §8

- GI50 (Jurkat cells): > 100 µM
- GI50 (SK-MEL-28 melanoma cells [1]): 9 µM
- GI50 (RPMI7951 melanoma cells [2]): 7 µM
- GI50 (A375 melanoma cells [3]): 7 µM
- GI50 (HeLa cells [5]): > 100 µM
SMILES: NCCN1C(=O)S/C(=C\c2ccc(OCc3ccccc3)cc2)C1=O [Compound 30h, (Z)-3-(2-aminoethyl)-5-(4-(benzyloxy)benzylidene)thiazolidine-2,4-dione]
- inhibition of ERK-mediated SRE promoter activity [4]: less potent than compounds 76 and 30g at lower concentrations
- inhibition of ERK-mediated AP-1 promoter activity [6]: less potent than compounds 76 and 30g at lower concentrations
- Cell Viability (% of Vehicle) RPMI-7951 (RPMI-7951 melanoma cells): 0.2 ± 0.04 % of Vehicle
- Cell Viability (% of Vehicle) HL-60 (HL-60 leukemic cells): 5.2 ± 2 % of Vehicle
- Cell Viability (% of Vehicle) Jurkat [7]: 87 ± 5 % of Vehicle
- Cell Viability (% of Vehicle) SK-MEL-28 (SK-MEL-28 melanoma cells [8]): 1.0 ± 1 % of Vehicle
- Cell Viability (% of Vehicle) HeLa [9]: 59 ± 3 % of Vehicle
- Cell Viability (% of Vehicle) A375 (A375 melanoma cells [10]): 0.6 ± 0.4 % of Vehicle

- IC50 [11]: 5 to 10 µM
- GI50 [12]: > 50 µM
- GI50 (RPMI7951 melanoma cells [13]): 4.9 µM
- GI50 [14]: 25 µM
- GI50 (A375 melanoma cells [15]): 7.9 µM
- IC50 (AP-1 promoter): < 10 µM
SMILES: O=S1(=O)C=CC(OS(=O)(=O)c2ccc(-c3ccccc3)cc2)C1 (stereo not shown) [SF-3-029]

- IC50 [11]: 5 to 10 µM
- GI50 [12]: > 50 µM
- GI50 (RPMI7951 melanoma cells [13]): 4.6 µM
- GI50 [14]: 29 µM
- GI50 (A375 melanoma cells [15]): 7.1 µM
- IC50 (AP-1 promoter): < 10 µM
SMILES: O=S1(=O)C=CC(OS(=O)(=O)c2ccc3c(c2)CC=CC3)C1 (stereo not shown) [SF-3-030]
- inhibition of EGF-induced c-Fos, Fra1, and FosB expression [16]: higher potency
- caspase 3/7 activity in A375 cells (A375 melanoma cells [17]): dose dependent increase
- caspase 3/7 activity in HeLa cells (HeLa cells [18]): did not show increased caspase 3/7 activity
